Measurements from patent publication US9157904B2, “Wnt antagonists and methods of treatment and screening” (OncoMed Pharmaceuticals, Inc., priority 2010, dated 2015).

What was measured:
PN21 pancreatic tumors = experiment: In vivo limiting dilution assay of treated PN21 tumors; design: species or system NOD/SCID mice; details: day 72, L-Calc
From the text: As described above in Example 3, a limiting dilution assays was used to assess the effect of treatment with FZD8-Fc alone or in combination with gemcitabine on solid tumor cancer stem cells in the PN21 pancreatic tumor model.
Control and treated tumors from the PN21 xenograft study described above were harvested at the end of the study. The tumors were processed and dissociated into single cells. […] The human cells in the suspension were harvested, counted, and stained for cell surface markers and appropriate cell doses (30, 90, and 270 cells) in FACS buffer were mixed in a 1:1 mixture with Matrigel and injected subcutaneously in NOD/SCID mice (10 mice per cell dose per treatment group). […]
At the desired time point, the percentage of mice with detectable tumors was determined in all groups injected with treated tumor cells and compared to the percentage of mice with detectable tumors in control treated cells. For example, the number of mice injected with 125 control antibody-treated tumor cells that have detectable tumors is determined and compared to the number of mice injected with 125 FZD8-Fc treated tumor cells that have detectable tumors.
On day 72 after injection of the cells, tumor take rates in the various groups were determined and the cancer stem cell frequency was calculated using L-Calc™ software (StemCell Technologies Inc.; www.stemcell.com).

PN4 tumors = experiment: Flow cytometry for ESA and CD44 on treated PN4 tumors; type: in vivo, NOD/SCID mice; details: PN4 tumors harvested day 85, 5 tumors pooled; control antibody 12.7%
Method: Control and treated tumors from the OMP-PN4 xenograft study described above were harvested at the end of the study (day 85). The tumors were processed and dissociated into single cells. Single cell suspensions derived from 5 tumors of each treatment group were pooled, and the pooled samples were then incubated on ice for 30 min with antibodies that bind mouse cells selectively (α-mouse CD45-biotin 1:200 dilution and rat α-mouse H2Kd-biotin 1:100 dilution, BioLegend, San Diego, Calif.), followed by addition of streptavidin-labeled magnetic beads (Invitrogen, Carlsbad, Calif.). Mouse cells were removed with the aid of a magnet. For analysis of human cell surface markers, the single tumor cell suspension was stained with anti-ESA (Biomeda, Hayward, Calif.) and anti-CD44 (BD Biosciences, San Jose, Calif.) antibodies which were directly conjugated to fluorochromes. Dead cells were excluded by using the viability dye DAPI. Flow cytometry was performed using a FACS Aria instrument (Becton Dickinson, Franklin Lakes, N.J.). Side scatter and forward scatter profiles were used to eliminate cell clumps.

PN4 pancreatic tumors = experiment: In vivo limiting dilution assay of treated PN4 tumors; design: species or system NOD/SCID mice; details: day 75 after injection of 30, 90, 270 cells, control 7 out of 30
From the text: Limiting dilution assays (LDA) can be used to assess the effect of therapeutic agents on solid tumor cancer stem cells and on the tumorigenicity of a tumor comprising the cancer stem cells. Such assays can be used to determine the frequency of cancer stem cells in tumors from animals treated with the FZD8-Fc fusion protein or other agent and to compare that frequency to the frequency of cancer stem cells in tumors from control animals. Control and treated tumors from the PN4 xenograft study described above were harvested at the end of the study (day 85). The tumors were processed and dissociated into single cells. […] The human cells in the suspension were harvested, counted, and stained for cell surface markers and appropriate cell doses (30, 90, and 270 cells) in FACS buffer were mixed in a 1:1 mixture with Matrigel and injected subcutaneously in NOD/SCID mice (10 mice per cell dose per treatment group). […] At the desired time point, the percentage of mice with detectable tumors was determined in all groups injected with FZD8-Fc-treated tumor cells and compared to the percentage of mice with detectable tumors in the controls. For example, the number of mice injected with 125 control antibody-treated tumor cells that have detectable tumors is determined and compared to the number of mice injected with 125 FZD8-Fc treated tumor cells that have detectable tumors. […]

Q: For Nc1ccn([C@@H]2O[C@H](CO)[C@@H](O)C2(F)F)c(=O)n1 [gemcitabine, reference compound], which “cancer stem cell frequency” value (PN21 pancreatic tumors) is on record?
A: slightly increased

Q: And the “bulk tumor population expressing both ESA and CD44 at high levels (double positive population)” value (PN4 tumors)?
A: 13.9%

Q: What about the tumor take rate (PN4 pancreatic tumors) of the same molecule?
A: 7 mice out of 30 mice
